In PubChem BioAssay AID1963872 (Molecular Pharmacology Branch, DTP, NCI, 2024):

System: KRAS patient-derived spheroids with HUVEC/MSC, viability
Assay: Anticancer human tumor 519858-162-T-J1-PDC patient-derived colon adenocarcinoma cell line growth inhibition [KRAS2]
Details: for IC50: curve of first compound; for viability, T/C: stronger effect = lower value
Procedure, shortened: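 KRAS-mutant tumor cells were grown as spheroids with HUVEC endothelial cells and human MSCs as stroma. Targeted agents were tested alone and with KRAS pathway inhibitors. Doses started at or near clinical Cmax, or 10 microM, descending half-log.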

[1] = second compound 0.1 µM, first compound 0.01 µM
[2] = second compound 0.1 µM, first compound 0.0316 µM
[3] = second compound 0.1 µM, first compound 0.1 µM
[4] = second compound 0.1 µM, first compound 0.316 µM
[5] = second compound 0.1 µM, first compound 1 µM
[6] = second compound 0.1 µM, first compound 3.16 µM
[7] = second compound 0.316 µM, first compound 0.01 µM
[8] = second compound 0.316 µM, first compound 0.0316 µM
[9] = second compound 0.316 µM, first compound 0.1 µM
[10] = second compound 0.316 µM, first compound 0.316 µM
[11] = second compound 0.316 µM, first compound 1 µM
[12] = second compound 0.316 µM, first compound 3.16 µM
[13] = second compound 1 µM, first compound 0.01 µM
[14] = second compound 1 µM, first compound 0.0316 µM
[15] = second compound 1 µM, first compound 0.1 µM
[16] = second compound 1 µM, first compound 0.316 µM
[17] = second compound 1 µM, first compound 1 µM
[18] = second compound 1 µM, first compound 3.16 µM
[19] = second compound 3.16 µM, first compound 0.01 µM
[20] = second compound 3.16 µM, first compound 0.0316 µM
[21] = second compound 3.16 µM, first compound 0.1 µM
[22] = second compound 3.16 µM, first compound 0.316 µM
[23] = second compound 3.16 µM, first compound 1 µM
[24] = second compound 3.16 µM, first compound 3.16 µM
[25] = second compound 10 µM, first compound 0.01 µM
[26] = second compound 10 µM, first compound 0.0316 µM
[27] = second compound 10 µM, first compound 0.1 µM
[28] = second compound 10 µM, first compound 0.316 µM
[29] = second compound 10 µM, first compound 1 µM
[30] = second compound 10 µM, first compound 3.16 µM
[31] = second compound 0.1 µM, first compound 10 µM
[32] = second compound 0.316 µM, first compound 10 µM
[33] = second compound 1 µM, first compound 10 µM
[34] = second compound 3.16 µM, first compound 10 µM
[35] = second compound 10 µM, first compound 10 µM
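Note: compound exposure lasted seven days before readout.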
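Throughout, for viability, T/C: 100% = DMSO vehicle control viability.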

Structure (SMILES) | IC50 (second compound 0.1 µM) [nM] | IC50 (second compound 0.316 µM) [nM] | IC50 (second compound 1 µM) [nM] | IC50 (second compound 3.16 µM) [nM] | viability, T/C [2] [%] | viability, T/C [3] [%] | viability, T/C [4] [%] | viability, T/C [5] [%] | viability, T/C [6] [%] | viability, T/C [8] [%] | viability, T/C [9] [%] | viability, T/C [10] [%] | viability, T/C [11] [%] | viability, T/C [12] [%] | viability, T/C [14] [%] | viability, T/C [15] [%] | viability, T/C [16] [%] | viability, T/C [17] [%] | viability, T/C [18] [%] | viability, T/C [20] [%] | also measured
CC(=O)OC12COC1CC(O)C1(C)C(=O)C(O)C3=C(C)C(OC(=O)C(O)C(NC(=O)OC(C)(C)C)c4ccccc4)CC(O)(C(OC(=O)c4ccccc4)C21)C3(C)C (stereo not given) + CC1OCC2(CCN(c3cnc(Sc4ccnc(N)c4Cl)c(N)n3)CC2)C1N | > 3160 | > 3160 | > 3160 | 261 | 71.1 | 89.4 | 109 | 79.5 | 80.7 | 84.8 | 90.3 | 55.5 | 63.4 | 51.5 | 71.2 | 104 | 81.8 | 83.3 | 101 | 77.2 | IC50 (second compound 10 µM): 205 nM; viability, T/C [1]: 73.8%; viability, T/C [7]: 79.9%; viability, T/C [13]: 88.9%; viability, T/C [19]: 59.6%; viability, T/C [21]: 64.7%; viability, T/C [22]: 46.9%; viability, T/C [23]: 28.5%; viability, T/C [24]: 36.3%; viability, T/C [25]: 74.3%; viability, T/C [26]: 79.8%; viability, T/C [27]: 58.8%; viability, T/C [28]: 36.1%; viability, T/C [29]: 50.6%; viability, T/C [30]: 47.4%
CC1OCC2(CCN(c3cnc(Sc4ccnc(N)c4Cl)c(N)n3)CC2)C1N (stereo not given) + C=CC(=O)N1CCN(c2nc(OCC3CCCN3C)nc3c2CCN(c2cccc4cccc(C)c24)C3)CC1CC#N | 2280 | > 10000 | 5700 | < 31.6 | 82.5 | 75.8 | 75.7 | 55.9 | 46.8 | 94 | 69 | 58 | 52.8 | 67.1 | 87.3 | 81.1 | 62.2 | 82.4 | 54.9 | 33.9 | IC50 (second compound 0.0316 µM): > 10000 nM; viability, T/C (second compound 0.0316 µM, first compound 0.0316 µM): 90.8%; viability, T/C (second compound 0.0316 µM, first compound 0.1 µM): 84.2%; viability, T/C (second compound 0.0316 µM, first compound 0.316 µM): 96.5%; viability, T/C (second compound 0.0316 µM, first compound 1 µM): 85.4%; viability, T/C (second compound 0.0316 µM, first compound 3.16 µM): 64.9%; viability, T/C (second compound 0.0316 µM, first compound 10 µM): 53.9%; viability, T/C [31]: 48.1%; viability, T/C [32]: 62.1%; viability, T/C [33]: 41.9%; viability, T/C [21]: 42.9%; viability, T/C [22]: 42.3%; viability, T/C [23]: 52.7%; viability, T/C [24]: 25.5%; viability, T/C [34]: 30.1%
CC1COCCN1c1cc(-c2ccnn2C)c2ccnc(-c3ccn[nH]3)c2n1 (stereo not given) + C=CC(=O)N1CCN(c2nc(=O)n(-c3c(C)ccnc3C(C)C)c3nc(-c4c(O)cccc4F)c(F)cc23)C(C)C1 | 1820 | 2100 | 838 | > 3160 | 102 | 89.3 | 82.7 | 61.6 | 38.1 | 94 | 78.4 | 87.9 | 69.8 | 39.1 | 91.8 | 124 | 78.5 | 50.1 | 39.6 | 97.9 | IC50 (second compound 10 µM): 340 nM; viability, T/C [1]: 115%; viability, T/C [7]: 87.4%; viability, T/C [13]: 116%; viability, T/C [19]: 110%; viability, T/C [21]: 89.4%; viability, T/C [22]: 80.9%; viability, T/C [23]: 68.6%; viability, T/C [24]: 48.8%; viability, T/C [25]: 70.4%; viability, T/C [26]: 87%; viability, T/C [27]: 61.8%; viability, T/C [28]: 56%; viability, T/C [29]: 21.3%; viability, T/C [30]: 20.3%
CC1OCC2(CCN(c3cnc(Sc4ccnc(N)c4Cl)c(N)n3)CC2)C1N (stereo not given) + CNCc1ccccc1-c1csc(C(C)Nc2nc(C)nc3cc(OC)c(OC)cc23)c1 | > 10000 | > 10000 | > 10000 | 98.2 | 97.1 | 99.2 | 85.4 | 59.3 | 54 | 80.6 | 92 | 68 | 60.8 | 69.7 | 72.9 | 83.5 | 77.3 | 50.3 | 35.3 | 66.6 | IC50 (second compound 10 µM): < 31.6 nM; viability, T/C [31]: 60.4%; viability, T/C [32]: 58.9%; viability, T/C [33]: 66%; viability, T/C [21]: 53.9%; viability, T/C [22]: 36.1%; viability, T/C [23]: 43.1%; viability, T/C [24]: 42.7%; viability, T/C [34]: 41.2%; viability, T/C [26]: 10.2%; viability, T/C [27]: 34.6%; viability, T/C [28]: 0.2%; viability, T/C [29]: 0.15%; viability, T/C [30]: 6.03%; viability, T/C [35]: 13.6%
CC1COCCN1c1cc(-c2ccnn2C)c2ccnc(-c3ccn[nH]3)c2n1 (stereo not given) + CC1OCC2(CCN(c3cnc(Sc4ccnc(N)c4Cl)c(N)n3)CC2)C1N | 2480 | 2280 | 2100 | > 3160 | 89.2 | 72.5 | 88.4 | 90.1 | 40 | 75.6 | 87.3 | 80.4 | 77.7 | 39.1 | 75.3 | 82.2 | 75.8 | 67.3 | 41.1 | 83.9 | IC50 (second compound 10 µM): > 3160 nM; viability, T/C [1]: 97.8%; viability, T/C [7]: 87%; viability, T/C [13]: 95.4%; viability, T/C [19]: 83.4%; viability, T/C [21]: 65.8%; viability, T/C [22]: 70.4%; viability, T/C [23]: 60.6%; viability, T/C [24]: 53.9%; viability, T/C [25]: 81.7%; viability, T/C [26]: 74.2%; viability, T/C [27]: 61.6%; viability, T/C [28]: 47.7%; viability, T/C [29]: 51%; viability, T/C [30]: 53.3%
CC1(C)CCC(CN2CCN(c3ccc(C(=O)NS(=O)(=O)c4ccc(NCC5CCOCC5)c([N+](=O)[O-])c4)c(Oc4cnc5[nH]ccc5c4)c3)CC2)=C(c2ccc(Cl)cc2)C1 + CNCc1ccccc1-c1csc(C(C)Nc2nc(C)nc3cc(OC)c(OC)cc23)c1 | > 10000 | > 10000 | 2870 | 31.6 | 69.5 | 86.8 | 92.7 | 68 | 69.9 | 67.5 | 78.4 | 78.4 | 80.8 | 68.3 | 74 | 78.9 | 84.5 | 101 | 46.8 | 38.8 | IC50 (second compound 10 µM): < 31.6 nM; viability, T/C [31]: 60.4%; viability, T/C [32]: 60.1%; viability, T/C [33]: 27.6%; viability, T/C [21]: 45.8%; viability, T/C [22]: 48.2%; viability, T/C [23]: 67%; viability, T/C [24]: 41.7%; viability, T/C [34]: 15.5%; viability, T/C [26]: 0.32%; viability, T/C [27]: 0.34%; viability, T/C [28]: 0.37%; viability, T/C [29]: 0.27%; viability, T/C [30]: 0.28%; viability, T/C [35]: 0.35%
